Results: US20090029949A1, “GPCR Ligands Identified by Computational Modeling” (priority 2006, published 2009)
Entries after “also recorded” stand apart in the source; their conditions may differ. Peptide text beside a SMILES is read from it. * marks the point of attachment. Dnp = O=[N+]([O-])c1ccc(*)c([N+](=O)[O-])c1

Experiments:
[1] = target: LPA1 (Homo sapiens, UniProt Q92633); experiment: LPA agonist/antagonist activity at LPA1 (Table 2); type: cell-based; conditions: for LPA1 effect: result in words
Sequence of LPA1 (Q92633 whole entry, species assumed): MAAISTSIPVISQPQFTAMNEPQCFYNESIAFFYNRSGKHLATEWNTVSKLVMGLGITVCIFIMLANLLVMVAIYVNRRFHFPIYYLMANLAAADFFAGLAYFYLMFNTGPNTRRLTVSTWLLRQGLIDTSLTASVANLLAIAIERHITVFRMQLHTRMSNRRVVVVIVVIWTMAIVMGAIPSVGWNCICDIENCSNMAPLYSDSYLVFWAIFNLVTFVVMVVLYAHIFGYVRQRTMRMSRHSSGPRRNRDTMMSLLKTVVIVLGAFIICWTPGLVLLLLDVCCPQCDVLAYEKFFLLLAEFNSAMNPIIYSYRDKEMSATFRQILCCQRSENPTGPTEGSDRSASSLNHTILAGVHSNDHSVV

[2] = target: LPA2 (Homo sapiens, UniProt Q9HBW0); experiment: LPA agonist/antagonist activity at LPA2 (Table 2); type: cell-based; conditions: for LPA2 effect: result in words
Sequence of LPA2 (Q9HBW0 whole entry, species assumed): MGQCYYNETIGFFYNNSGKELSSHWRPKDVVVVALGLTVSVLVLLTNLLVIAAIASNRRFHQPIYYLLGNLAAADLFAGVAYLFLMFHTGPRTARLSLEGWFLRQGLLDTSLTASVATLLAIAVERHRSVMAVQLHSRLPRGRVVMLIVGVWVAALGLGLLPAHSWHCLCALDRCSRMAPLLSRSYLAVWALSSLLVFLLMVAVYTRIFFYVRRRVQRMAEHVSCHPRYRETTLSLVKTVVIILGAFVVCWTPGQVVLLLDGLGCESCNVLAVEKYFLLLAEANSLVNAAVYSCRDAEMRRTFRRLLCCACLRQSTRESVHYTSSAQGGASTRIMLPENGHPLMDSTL

[3] = target: T1, LPA3 (Homo sapiens, UniProt Q9UBY5); experiment: LPA agonist/antagonist activity at LPA3 (Table 2); type: cell-based; conditions: for LPA3 inhibition of 200 nM LPA response at 30JM: compound at 30JM; for LPA3 effect: result in words
T1 sequence (Q9UBY5 1-353): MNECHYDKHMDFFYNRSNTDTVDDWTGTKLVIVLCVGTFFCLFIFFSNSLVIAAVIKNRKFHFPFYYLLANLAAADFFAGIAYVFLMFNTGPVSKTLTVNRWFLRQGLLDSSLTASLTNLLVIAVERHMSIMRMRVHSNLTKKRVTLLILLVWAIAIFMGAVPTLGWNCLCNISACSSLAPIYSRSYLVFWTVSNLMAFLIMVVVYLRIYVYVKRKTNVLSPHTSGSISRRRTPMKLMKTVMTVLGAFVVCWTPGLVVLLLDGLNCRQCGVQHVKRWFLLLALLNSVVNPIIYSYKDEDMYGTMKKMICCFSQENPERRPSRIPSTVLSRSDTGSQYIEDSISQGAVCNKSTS

[4] = target: WT S1P1 (Homo sapiens, UniProt P21453); experiment: Ligand-induced [35S]GTPγS binding, WT S1P1; type: biochemical; set-up: expressed in transfected cells; host or cells: RH7777 (transient, pcDNA3.1); conditions: for S1P1 receptor activation in the GTPγS activation assay: at 10 μM, versus vehicle; for S1P1 agonist character: result in words
Sequence of WT S1P1 (P21453 whole entry): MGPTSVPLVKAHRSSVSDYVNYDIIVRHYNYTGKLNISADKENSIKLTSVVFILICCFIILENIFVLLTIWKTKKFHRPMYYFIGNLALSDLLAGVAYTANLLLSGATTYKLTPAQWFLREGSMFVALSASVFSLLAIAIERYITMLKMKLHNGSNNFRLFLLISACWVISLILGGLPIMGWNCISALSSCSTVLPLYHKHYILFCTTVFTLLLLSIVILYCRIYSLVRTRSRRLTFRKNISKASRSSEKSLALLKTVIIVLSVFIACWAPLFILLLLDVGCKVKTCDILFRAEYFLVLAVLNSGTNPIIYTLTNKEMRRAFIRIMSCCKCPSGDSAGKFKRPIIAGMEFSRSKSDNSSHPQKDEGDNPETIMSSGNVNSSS
Experimental: (§1) RH7777 and HEK-293 cells (ATCC, Manassas, Va.) were maintained in Dulbecco's modified minimal essential medium (DMEM) containing 10% fetal bovine serum (Hyclone, Logan, Utah). Cells (2×10^6) were transfected with 2 μg of plasmid DNA with Effectene (Qiagen, Valencia, Calif.) according to the manufacturer's instructions, for 24 h. Before ligand binding and receptor activation assays, the cells were washed twice with serum-free DMEM and serum-starved for at least 6 h.
(§2) S1P1 Receptor Activation Assays Receptor functional assays were performed in transiently transfected RH7777 cells by measuring S1P-activated [^35S]GTPγS binding as previously described (28).

[5] = target: T2, S1P1 mutant W6.48A (Homo sapiens, UniProt P21453, W269A); experiment: [35S]GTPγS binding, S1P1 W6.48A; type: biochemical; conditions: S1P1 W6.48A, result in words, compared with S1P
T2 construct: expressed in transfected cells
T2 sequence (P21453 whole entry W269A): as the sequence (P21453 whole entry) above, with W269A counted along it
Experimental: as §1, §2

[6] = target: T3, S1P1 mutant V6.40L (Homo sapiens, UniProt P21453, V261L); experiment: [35S]GTPγS binding, S1P1 V6.40L; type: biochemical; conditions: S1P1 V6.40L, result in words
T3 construct: expressed in transfected cells; host or cells: RH7777
T3 sequence (P21453 whole entry V261L): as the sequence (P21453 whole entry) above, with V261L counted along it
Experimental: as §1, §2

[7] = target: T4, S1P1 mutant F5.48G (Homo sapiens, UniProt P21453, F210G); experiment: [35S]GTPγS binding, S1P1 F5.48G; type: biochemical; conditions: S1P1 F5.48G, result in words, compared with S1P
T4 construct: expressed in transfected cells
T4 sequence (P21453 whole entry F210G): as the sequence (P21453 whole entry) above, with F210G counted along it
Experimental: as §1, §2

[8] = target: S1P1 mutant L3.36E (Homo sapiens, UniProt P21453, L128E); experiment: [35S]GTPγS binding, S1P1 L3.36E; type: biochemical; set-up: expressed in transfected cells; host or cells: RH7777 (transient, pcDNA3.1); conditions: S1P1 L3.36E, result in words, compared with S1P
Sequence of S1P1 mutant L3.36E (P21453 whole entry L128E): as the sequence (P21453 whole entry) above, with L128E counted along it
Experimental: as §1, §2

Row | SMILES | LPA1 effect [1] | LPA2 effect [2] | IC50 [2] [nM] | IC50 [3] [nM] | LPA3 Inhibition of 200 nM LPA response [3] [%] | further results
1 | O=C(c1ccccc1Cc1ccc2ccc(C(F)(F)F)cc2c1)c1cccc2ccccc12 [NSC99548] | – | – | – | – | – | S1P1 receptor activation in the GTPγS activation assay [4]: GTPγS activation greater than that of the vehicle; S1P1 agonist character [4]: partial agonists
2 | CCN(CC)CCOc1ccc(/C(C#N)=C\c2ccc(C(F)(F)F)cc2)cc1 [NSC59474] | – | – | – | – | – | S1P1 receptor activation in the GTPγS activation assay [4]: GTPγS activation greater than that of the vehicle; S1P1 agonist character [4]: partial agonists
3 | O=P(O)(O)OC[C@H]1O[C@@H](n2cnc3c(NCc4ccccc4)ncnc32)C(O)C1O (some centres unmarked) [NSC 255523] | No effect | No effect | – | – | – | LPA3 effect [3]: PotentiatesLPA-inducedactivation
4 | FC(F)(F)c1cccc(-c2noc(-c3cc(-c4ccccc4)c(C(F)(F)F)s3)n2)c1 [SEW2871] | – | – | – | – | – | ligand-induced GTPγS activation [5]: similarly impaired activation; ligand-induced GTPγS activation [6]: slightly activated; also recorded: partial activation; ligand-induced GTPγS activation ([6]; listed as SE2871): dose-dependent partial activation; ligand-induced GTPγS activation [7]: similarly impaired activation; ligand-induced GTPγS activation [8]: similarly impaired activation
5 | NCC(=O)NC(CSc1ccc([N+](=O)[O-])cc1[N+](=O)[O-])C(=O)NC(CCC(=O)O)C(=O)O (centres unmarked) [NSC 161613] (H-Gly-Cys(Dnp)-Glu-OH; configuration not given here) | No effect | No effect | – | 24 | 69.8 | –
6 | OC1C(O)[C@@H](COP(O)(O)=S)O[C@H]1n1cnc2c(NCc3ccccc3)ncnc21 (some centres unmarked) | No effect | PotentiatesLPA-inducedactivation | – | – | – | LPA3 effect [3]: No effect
7 | O=C(NC(Cc1ccc2c(c1)OCO2)C(=O)O)c1ccccc1 (centres unmarked) [NSC 10188] | Weak agonist | – | 6900 | – | – | LPA2 inhibition of 200 nM LPA response at 30JM ([2]; 200 nM LPA, compound at 30JM): 55.8%; LPA3 effect [3]: No effect
8 | CCCC(=O)Nc1ncnc2c1ncn2C1OC2COP(=O)(O)OC2C1OC(=O)CCC (centres unmarked) [NSC 143108] | Weak agonist | No Effect | – | 1310 | – | LPA3 inhibition of 200 nM LPA response at 30JM [3]: 61.0%

Second part, led by results:

Row | LPA1 effect [1] | LPA2 effect [2] | IC50 [2] [nM] | IC50 [3] [nM] | LPA3 Inhibition of 200 nM LPA response [3] [%] | SMILES | further results
9 | Weak agonist | No Effect | – | – | – | COc1ccc2c(c1)c(CC(=O)O)c(C)n2C(=O)c1ccc(Cl)cc1 [NSC 77541] | LPA3 inhibition of 200 nM LPA response at 30JM [3]: 76.2%
10 | No effect | – | 100 | 231 | 59.7 | COC(=O)C(CCC(=O)O)N1C(=O)c2ccccc2C1=O (centres unmarked) [NSC 16540] | LPA2 Inhibition of 10 nM LPA response [2]: 50.9%
11 | No effect | – | 355 | 30 | 81.7 | O=C(O)/C=C/C(=O)Nc1cccc(NC(=O)/C=C/C(=O)O)c1C(=O)O [NSC 47091] | LPA2 Inhibition of 10 nM LPA response [2]: 53.5%
12 | – | – | 172 | 35 | – | Cn1c(=O)c2c(nc(C(=N)SCC(=O)O)n2C)n(C)c1=O [NSC 62586] | IC50 [1]: 234 nM; Ki [1]: 91.7 nM; Ki [2]: 117 nM; Ki [3]: 15.7 nM
13 | – | – | 167 | 103 | – | Cc1cc2nc3c(=O)[nH]c(=O)nc-3n(CCOC(=O)CCC(=O)O)c2cc1C [NSC 3066] | IC50 [1]: 197 nM; Ki [1]: 91.7 nM; Ki [2]: 78.7 nM; Ki [3]: 44.8 nM
14 | No Effect | – | 88 | 517 | 49.9 | COc1ccc(C(=O)CCCC(=O)O)c(OC)c1O [NSC 10167] | LPA2 Inhibition of 10 nM LPA response [2]: 47.4%
15 | No effect | – | 20 | 9 | 58.7 | O=C(O)CCC(NC(=O)OCc1ccccc1)C(=O)NC(Cc1ccccc1)C(=O)O (centres unmarked) [NSC 18760] | LPA2 Inhibition of 10 nM LPA response [2]: 53.3%
